{
  "source": "patent US9827292B2",
  "about": "“Use of KGF in the treatment of menopausal disorders” (Università degli Studi di Roma “La Sapienza”, priority 2012, dated 2017)",
  "molecules": {"B1": {"name": "keratinocyte growth factor (protein, listed as Homo sapiens)", "chain": "MHKWILTWILPTLLYRSCFHIICLVGTISLACNDMTPEQMATNVNCSSPERHTRSYDYMEGGDIRVRRLFCRTQWYLRIDKRGKVKGTQEMKNNYNIMEIRTVAVGIVAIKGVESEFYLAMNKEGKLYAKKECNEDCNFKELILENHYNTYASAKWTHNGGEMFVALNQKGIPVRGKKTKKEQKTAHFLPMAIT", "notes": "human recombinant KGF (Upstate Biotechnology)"}},
  "assay_type_in_all_cases": "cell-based, human",
  "key": {"[1]": {"system": "oestrogen response elements (EREs)", "experiment": "ERE-LUC dual-luciferase reporter assay in MCF-7 cells", "details": "24 h treatment, FIG. 5", "experimental": "MCF-7 cells were seeded onto 24-well plates with a cell/well density of […] and were co-transfected with 1 μg of the 3×ERE TATA LUC construct, a plasmid containing the reporter gene for firefly luciferase under the control of three DNA sequences to which the ER binds, called oestrogen response elements (EREs) (Addgene), and with 300 ng of control pRL-TK plasmid (renilla luciferase) for normalisation of the efficiency of the transfection process. The transfections were carried out using lipofectamine 2000 (Invitrogen) according to manufacturer's instructions. After 6 h, the cells were treated with KGF or E2. The luciferase activity was determined using a dual-luciferase reporter assay system (Promega) 24 h after the treatment, according to manufacturer's protocol. All the transfections were conducted in triplicate."}, "ERalpha": {"system": "ERalpha", "experiment": "Nucleocytoplasmic fractionation and Western blot for ER in MCF-7 cells", "details": "5 or 30 min treatment, FIG. 4A", "experimental": "(§1) The oestrogen receptor α-positive MCF-7 human breast adenocarcinoma cell line, acquired from American Type Culture Collection (no. HTB-22, ATCC-LGC Promochem, Teddington, UK), was cultured in Dulbecco's modified eagle's medium (DMEM; Invitrogen, Karlsruhe, Germany), supplemented with 10% foetal bovine serum (FBS; Invitrogen) and antibiotics. Primary cultures of human oestrogen-sensitive keratinocytes (KCs) were established from 1 cm^2 full-thickness mucosal biopsy of the vaginal vestibule. […]\n(§2) MCF-7 cells untreated or treated with KGF or E2 were lysed in RIPA buffer. […] The bound antibody was detected by enhanced chemiluminescence detection reagents (Pierce Biotechnology, Inc, Rockford, Ill., USA), according to manufacturer's instructions. […] Densitometric analysis was performed using Quantity One Program (Bio-Rad Laboratories srl, Segrate, MI, Italy).\nThe cells were harvested in PBS and centrifuged at 2000 rpm for 5 minutes to obtain a pellet, resuspended in cellular lysis buffer containing Hepes 10 mM pH 8, 50 mM NaCl, 1 mM EDTA pH 8, 0.2% TritonX100, sucrose 500 mM and protease inhibitors, stirred, and placed in ice for 15 min. […] The efficiency of the fractionation was analysed by means of immunoblotting using an anti-β-tubulin antibody as cytoplasmic marker and an anti-lamin B antibody as nuclear marker."}, "MAPK p38": {"system": "MAPK p38", "experiment": "Western blot of p38 phosphorylation in MCF-7 cells", "details": "20 ng/ml, 5 or 30 minutes, FIG. 2B", "experimental": "as §1, with “vestibule. Following enzymatic dissociation, the keratinocytes were seeded onto culture plates coated with collagen IV (10 mg/ml), as previously reported [Panici et al, 2007], and were maintained in basal medium of the keratinocytes (KBM, Lonza) supplemented with aliquots of KGM (Lonza), with medium change twice a week.” for “vestibule.”\nas §2"}},
  "data": [
    {"molecule": "C[C@]12CC[C@@H]3c4ccc(O)cc4CC[C@H]3[C@@H]1CC[C@@H]2O", "note": "[E2, 17β-oestradiol]", "values": [
      {"measurement": "activation of ERE-luciferase construct (genomic pathway)", "setting": "[1]", "result": "able to determine the activation of such a construction"},
      {"measurement": "redistribution of ER between cytoplasmic and nuclear fractions", "setting": "ERalpha", "result": "dramatic redistribution of ER in the nucleus"},
      {"measurement": "phosphorylation of p38", "setting": "MAPK p38", "result": "able to phosphorylate the protein p38"}
    ]},
    {"molecule": "B1", "values": [
      {"measurement": "activation of ERE-luciferase construct (genomic pathway)", "setting": "[1]", "result": "absence of stimulation of the genomic pathway of the oestrogens"},
      {"measurement": "redistribution of ER between cytoplasmic and nuclear fractions", "setting": "ERalpha", "result": "does not appear able to induce any significant redistribution of the receptor in the nucleus"},
      {"measurement": "phosphorylation of p38", "setting": "MAPK p38", "result": "able to phosphorylate the protein p38"}
    ]}
  ]
}
